# Biological target: T1, c-Kit (Homo sapiens, UniProt P10721)
# T1 construct: purchased Cell Signaling Technology CO
# Test: Protein kinase activity by ELISA in vitro, c-Kit
# Type: biochemical
# Details: concentration of 10^−7 mol/L; read-out: kinase inhibition ratio, c-Kit
# Source text: (§1) An ELISA (Enzyme-Linked Immunosorbent Sandwich Assay) procedure may be used to detect and measure the level of protein tyrosine kinase activity. Tyrosine kinases such as VEGFR-2, PDGFR-β and c-Kit etc. catalyze the phosphorylation reaction of ATP and biotin-labeled peptide substrate, which will be ceased when the kinase activity is inhibited. According to the principle of ELISA, a monoclonal antibody can react with phosphorylated substrate specially, so biotin-labeled substrate is binded to streptavidin-coated ELISA plate, and then binded to a HRP-labeled goat anti-mouse antibody. Finally TMB is added for a color reaction and the value of A450-A630 is read by ELISA plate reader. The OD value can reflect the inhibitory activity of the VEGFR-2, PDGFR-β, c-Kit tyrosine kinases etc. treated with the test compounds at the different concentrations. So, the assay may be used to measure the inhibition ratio of the compounds for the tyrosine kinase activity. Similar assays can be designed along the same lines for any PK using techniques well known in the art.
# as §1, with “Tyrosine” for “An ELISA (Enzyme-Linked Immunosorbent Sandwich Assay) procedure may be used to detect and measure the level of protein tyrosine kinase activity. Tyrosine”, “PDGFR-β” for “PDGFR-β,”, “kinases” for “kinases etc.”
# VEGF Receptor 2, PDGF Receptor-beta and c-kit kinase assay kit (include kinase, 1.25M DTT, substrate peptide, 10 mM ATP, P-Tyr-100 Mouse antibody, 4×HTScan tyrosine kinase buffer), Cell Signaling Technology CO.; HRP labeled goat anti mouse IgG, Protein Tech CO.; TMB, Pierce CO.; Streptavidin Microtitration Plate, Greiner Bio-one CO.; Infinite M200 Reader, Tecan CO.
# 1.2.1 Immediately transfer enzyme from −80° C. to ice. Allow enzyme to thaw on ice then at 4° C. and centrifugate transiently to the bottom of centrifuge tube, then lay back on ice quickly
# 1.2.2 Add 10 μl of DTT (1.25 M) to 2.5 ml of 4×HTScan tyrosine kinase buffer (240 mM HEPES pH 7.5, 20 mM MgCl2, 20 mM MnCl2, 12 μM Na3VO4). Transfer 0.6 ml of DTT/Kinase buffer to each enzyme tube to make 4× reaction Cocktail. Incubate 12.5 μl of the 4× reaction cocktail with 12.5 μl/well prediluted compound of interest for 5 minutes at room temperature, and set blank control, free-enzyme control, negative control and positive control. 1.2.3 Add 10 μl 10 mM ATP to 1.25 ml 6 μM substrate peptide. Dilute the mixture with dH20 to 2.5 ml to make 2×ATP/substrate cocktail. Add 25 μl of 2×ATP/substrate cocktail to 25 μl/well preincubated reaction cocktail/compound. Incubate reaction plate at room temperature for 30 minutes. 1.2.4 Add 50 μl/well stop Buffer (50 mM EDTA, pH 8) to stop the reaction. Transfer 25 μl of each reaction and 75 μl dH2O/well to a 96-well streptavidin coated plate and incubate at room temperature for 60 minutes. Wash three times with 200 μl/well PBS/T(1×PBS, 0.05% Tween-20). 1.2.5 Dilute primary antibody, Phospho-Tyrosine mAb (P-Tyr-100), 1:500 in PBS/T with 1% BSA. Add 100 μl/well primary antibody. Incubate at room temperature for 60 minutes. Wash three times with 200 μl/well PBS/T(1×PBS, 0.05% Tween-20). 1.2.6 Prepare appropriate dilution of HRP labeled secondary antibody, 1:500 in PBS/T with 1% BSA. Add 100 μl/well secondary antibody solution. Incubate at room temperature for 30 minutes. […]
# T1 sequence (P10721 26-976): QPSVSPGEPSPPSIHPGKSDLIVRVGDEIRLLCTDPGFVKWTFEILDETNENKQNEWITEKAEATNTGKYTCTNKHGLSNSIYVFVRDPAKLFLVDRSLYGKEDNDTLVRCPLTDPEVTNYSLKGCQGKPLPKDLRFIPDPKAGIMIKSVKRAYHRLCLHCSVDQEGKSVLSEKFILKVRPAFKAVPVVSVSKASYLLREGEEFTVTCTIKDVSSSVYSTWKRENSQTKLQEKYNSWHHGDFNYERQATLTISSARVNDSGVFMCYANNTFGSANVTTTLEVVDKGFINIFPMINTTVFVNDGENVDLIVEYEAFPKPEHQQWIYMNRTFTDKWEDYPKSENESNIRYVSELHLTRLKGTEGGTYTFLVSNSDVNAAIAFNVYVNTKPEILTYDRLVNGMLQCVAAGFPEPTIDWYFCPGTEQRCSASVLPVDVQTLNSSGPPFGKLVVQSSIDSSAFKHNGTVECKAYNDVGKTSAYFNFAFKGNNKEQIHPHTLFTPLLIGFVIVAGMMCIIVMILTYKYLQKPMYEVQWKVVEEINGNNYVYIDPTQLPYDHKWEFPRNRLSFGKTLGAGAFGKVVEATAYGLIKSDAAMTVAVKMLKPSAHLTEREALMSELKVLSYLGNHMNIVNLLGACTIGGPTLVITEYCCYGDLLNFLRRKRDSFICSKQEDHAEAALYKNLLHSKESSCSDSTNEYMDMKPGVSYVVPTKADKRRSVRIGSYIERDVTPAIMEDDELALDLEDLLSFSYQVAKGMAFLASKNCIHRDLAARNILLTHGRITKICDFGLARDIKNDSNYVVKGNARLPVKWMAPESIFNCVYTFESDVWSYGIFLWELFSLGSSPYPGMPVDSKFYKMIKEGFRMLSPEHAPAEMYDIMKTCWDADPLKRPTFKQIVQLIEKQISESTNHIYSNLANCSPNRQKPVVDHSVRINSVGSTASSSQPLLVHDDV
row,Structure (SMILES),inhibition at 0.1 µM [%]
1,"Cc1[nH]c2c(c1C(=O)NCCO)CCC/C2=C1/C(=O)Nc2ccccc21 [I-8, N-(2-hydroxyethyl)-2-methyl-7-[1,2-dihydro-2-oxo-3H-indol-(Z)-3-ylidene]-4,5,6,7-tetrahydro-1H-indole-3-carboxamide]",77
2,"CCN(CC)CCNC(=O)c1c(C)[nH]c2c1CCC/C2=C1/C(=O)Nc2ccccc21 [I-5, N-(2-(diethylamino)ethyl)-2-methyl-7-[1,2-dihydro-2-oxo-3H-indol-(Z)-3-ylidene]-4,5,6,7-tetrahydro-1H-indole-3-carboxamide]",67
3,"CCN(CC)CCNC(=O)c1c(C)[nH]c2c1CCC/C2=C1/C(=O)Nc2ccc(C)cc21 [I-4, N-(2-(diethylamino)ethyl)-2-methyl-7-[1,2-dihydro-5-methyl-2-oxo-3H-indol-(Z)-3-ylidene]-4,5,6,7-tetrahydro-1H-indole-3-carboxamide]",60
4,"Cc1[nH]c2c(c1C(=O)NCC(O)CN1CCCC1)CCC/C2=C1/C(=O)Nc2ccccc21 (stereo not drawn) [I-70, N-(2-hydroxy-3-(pyrrolidin-1-yl)propyl)-2-methyl-7-[1,2-dihydro-2-oxo-3H-indol-(Z)-3-ylidene]-4,5,6,7-tetrahydro-1H-indole-3-carboxamide]",76
5,"CCN(CC)CCNC(=O)c1c(C)[nH]c2c1CCC/C2=C1/C(=O)Nc2ccc(Cl)cc21 [I-3, N-(2-(diethylamino)ethyl)-2-methyl-7-[1,2-dihydro-5-chloro-2-oxo-3H-indol-(Z)-3-ylidene]-4,5,6,7-tetrahydro-1H-indole-3-carboxamide]",43
6,"CCN(CC)CC(O)CNC(=O)c1c(C)[nH]c2c1CCC/C2=C1/C(=O)Nc2ccccc21 (stereo not drawn) [I-63, N-(3-(diethylamino)-2-hydroxypropyl)-2-methyl-7-[1,2-dihydro-2-oxo-3H-indol-(Z)-3-ylidene]-4,5,6,7-tetrahydro-1H-indole-3-carboxamide]",73
7,"Cc1[nH]c2c(c1C(=O)NCCN(C)C)CCC/C2=C1/C(=O)Nc2ccc(F)cc21 [I-6, N-(2-(dimethylamino)ethyl)-2-methyl-7-[1,2-dihydro-5-fluoro-2-oxo-3H-indol-(Z)-3-ylidene]-4,5,6,7-tetrahydro-1H-indole-3-carboxamide]",77
8,"CCN(CC)CCNC(=O)c1c(C)[nH]c2c1CCC/C2=C1/C(=O)Nc2ccc(F)cc21 [I-2, N-(2-(diethylamino)ethyl)-2-methyl-7-[1,2-dihydro-5-fluoro-2-oxo-3H-indol-(Z)-3-ylidene]-4,5,6,7-tetrahydro-1H-indole-3-carboxamide]",46
9,"Cc1[nH]c2c(c1C(=O)NCCCN(C)C)CCC/C2=C1/C(=O)Nc2ccc(Cl)cc21 [I-7, N-(3-(dimethylamino)propyl)-2-methyl-7-[1,2-dihydro-5-chloro-2-oxo-3H-indol-(Z)-3-ylidene]-4,5,6,7-tetrahydro-1H-indole-3-carboxamide]",74

# From patent US8084621B2, “3-Pyrrolo[b]cyclohexylene-2-dihydroindolinone derivatives and uses thereof” (Jiangsu Simcere Pharmaceutical R&D Co. Ltd., priority 2006, dated 2011)
